From patent US12029682B2, “Spray ejector mechanisms and devices providing charge isolation and controllable droplet charge, and low dosage volume ophthalmic administration” (EYENOVIA, INC., priority 2012, dated 2024)
“Also recorded” adds a separate entry of the source.

Assays:
glaucomatous beagles [1] = test: Ocular irritation observations in glaucomatous beagles; format: in vivo, beagle dog; conditions: 6 μl of 0.03% via spray ejector device, compared to traditional eye drop treatment
Protocol: Active drug delivery begins on study day eight. For five days, IOP and PD measurements are taken at 0900. Immediately after 0900 measurements (time 0), each animal receives 6 μl of generic latanoprost in its assigned eye with the ejector device, followed by a second dosing 3 minutes later of an additional 6 μl (to avoid overloading the conjunctival sac). The contralateral eye receives a clinical dose (one drop) of the same commercially-available topical drug from FDA approved container (positive control). The ejector device is checked for accuracy before and after every use (Table 1). Standard measurements continue throughout each day (at 0:30, 0:45, 1, 2, 7 hrs). Possible endpoints include, but are not limited to, excessive ocular irritation, ocular damage, or other illness and injury. […]
On study days 5-9, IOP and PD measurements were taken at approximately 0900 h (time 0). Immediately after these measurements, each animal received 6 μl of 0.03% bimatoprost in its assigned eye via the spray ejector device. The contralateral eye received a clinical dose (one drop) of the same commercially available topical drug from a traditional eyedropper (positive control). The spray ejector device was checked for accuracy before and after every use and required a 10% delivered dose accuracy in pretreatment. Standard measurements continued throughout each day at 0, 1, 2, 4, and 7 hours. Possible endpoints included, but were not limited to, excessive ocular irritation, ocular damage, and other illness or injury. No statistical crossover was utilized for this study.
Ophthalmic examinations (slit lamp with fluorescein and indirect ophthalmoscopy) were performed on the eyes of each animal prior to Study Day 1. Ocular findings were scored according to the McDonald-Shadduck Score System. Ocular findings were recorded using a standardized data collection sheet. Macroscopic observations were recorded in accordance with the Draize Scale for Scoring Ocular Lesions. Animals were assigned treatments based on basic randomization prior to study day one.
Following a 7 day rest period, the eye choice was reversed. Measurements of IOP, heart rate and pupil diameter (PD) were made at 0:15, 0:30, 0:45, 1, 2, 4, 7, and 18 hours in the primary and crossover study. A veterinary ophthalmologist evaluated each test subject before and after the study for evidence of ocular side effects.
Ophthalmic examinations (slit lamp with fluorescein and indirect ophthalmoscopy) were performed on the eyes of each animal prior to study day 1. Ocular findings were scored according to the McDonald-Shadduck score system and macroscopic observations were recorded in accordance with the Draize scale for scoring ocular lesions. Ocular findings were recorded using a standardized data collection sheet.

glaucomatous beagles [2] = test: Intraocular pressure (IOP), TonoVet, in glaucomatous beagles; format: in vivo, beagle dog

Structure (SMILES): CCNC(=O)CCC/C=C\C[C@@H]1[C@@H](/C=C/[C@@H](O)CCc2ccccc2)[C@H](O)C[C@@H]1O [bimatoprost]
- irritation (glaucomatous beagles [1]): Markedly less irritation; also recorded: Lack of ocular irritation
- duration of the dose vs spray ejector device (glaucomatous beagles [2]; 0.03%, one drop by eyedropper): greater
- effectiveness at lowering/controlling IOP vs traditional therapy (glaucomatous beagles [2]; 6 μl of 0.03% once daily morning via spray ejector device vs one drop (26-30 μl)): as effective at lowering IOP and constricting the pupil as traditional therapy; also recorded: as effective at controlling IOP as is the traditional therapy
- IOP values vs baseline (glaucomatous beagles [2]; 6 μl of 0.03% via spray ejector device): lower than baseline
